From US6602487B1, “Methods and tests for producing and for inhibiting coronary artery vasospasms” (Dimera Incorporated, priority 1997, dated 2003)
Several values for one entry are separate records, joined by “and”; a condition that tells them apart may be missing. Equal entries are not always repeated.

Tests used:
[1] = tested on: coronary artery vascular muscle cells (VMC); assay: Subcellular Ca2+ and PKC localization and contraction of coronary VMC stimulated with serotonin plus U46619; type: cell-based, rhesus monkeys; conditions: VMC from treated monkeys, 10 μM serotonin plus 100 nM U46619
Source text: Single VMCs from the left anterior descending, circumflex, and right coronary arteries of adult rhesus monkeys were isolated and studied both as freshly dispersed and as primary cultures. The short-term primary cultured cells (never passaged) maintain the characteristics of the source tissue for 2 3 weeks, including contraction, relaxation, receptors, and membrane electrical properties. VMCs were dissociated with collagenase and protease enzymes in a potassium glutamate solution (KG) that prevent loading with Na^+, Ca^2+, or Cl^− and results in a high proportion of viable, contracting cells (Self, D. A., et al., J. Vasc. Res. 31:359-366 (1994); Rusch., N. J., et al., Physiology and Pathophysiology of the Heart, 999-1010 (1995)). The cells prepared for culture were seeded at low density in cardiovascular culture solution for mammals, fifth generation (CV5M) on glass coverslips to facilitate selection of individual cells. VMC were used for experiments 7-14 days after attaching to coverslips.
Freshly dispersed or primary cultured VMCs on glass coverslips were placed in a chamber of laminar flow design and observed with a Zeiss Plan Neofluar 25×/0.80 water immersion objective. Ionic solution for mammals version 2 (ISM2) was continuously pumped through the chamber (at 1 ml/minute) to provide continuous equilibration and washout of drugs. After a 15 minutes equilibration period, VMC were loaded for 15 minutes at room temperature with 3 μM fluo 3 (Molecular Probes, Inc.) for sensing Ca^2− and for 10 minutes with […] hypericin (LC Laboratories) for reporting PKC. Individual VMC were stimulated by adding 20 μl of 10 μM serotonin plus 100 nM U46619 over the individual cell. After 15 seconds under no-flow conditions, continuous flow of ISM2 was reinstated and a chamber volume of approximately 300 μl was maintained. Fluorescent images were taken at 1, 2, 5, 10, 15, 20 and 30 minutes after stimulation for Ca^2+ and at 3, 4, 9, 16, 21 and 31 minutes for PKC to evaluate subcellular distribution of these signals, and to determine VMC contraction.
ISM2 contains (in mM): 100 NaCl, 4 NaHCO3, 0.5 NaH2PO4, 4.7 KCl, 1.8 CaCl2, 0.41 […], 50 HEPES (pH 7.37), and 5.5 dextrose, KG solution consists of (in mM); 140 K-glutamate, 16 NaHCO3, 0.5 NaH2PO4, 30 HEPES, and 16.5 dextrose at pH 7.3. CVSM consists of. 4.0 mM L-glutamine, 10 μg/ml ciprofloxacin (Miles Pentex/Bayer Corporation), 50 mM HEPES (pH 7.3), and 16 mM NaHCO3 dissolved in 85% MEM-Earle's'salts and 15% horse serum. Phenol red, known to have estrogenic activity, was omitted from all solutions.
As discussed above, the monkeys were implanted with subdermal sylastic tubing containing estrogen (E) progesterone (P) or MPA. The first step in each of the three groups was to implant sylastic tubing containing E. Two weeks later, either P or MPA were additionally implanted and maintained for another 4 weeks (6 weeks total). In the withdrawal (W) group, the E tube was withdrawn, and no tubes were implanted for the last 4 weeks.

[2] = tested on: coronary arteries; assay: Drug-induced (S+U) coronary vasospasm in ovariectomized monkeys with E2 plus P or MPA implants; type: in vivo, rhesus monkeys (Macaca mulatta)
Description: Twelve rhesus monkeys (Macaca mulatta), aged 8 to 16 years and with weights of 5-7 kg, were ovariectomized at least 3 months prior to beginning of the study and selected randomly for one of two treatments. After documenting the lack of cardiovascular disease or previous exposure to atherogenic diet and after a normal physical examination (including blood chemistry), monkeys received subdermal sylastic implants containing 200 mg of E2. Two weeks later, sylastic implants containing either 400 mg of P or 400 mg of MPA were additionally implanted. All steroids were purchased from Steraloids (Wilton, N.H.). Both estrogen and progestin implants, providing sustained release steroids, remained in place through the catheterization study 6 weeks after beginning the study. Venous blood sample (5 ml) were collected just prior to beginning the study at weekly intervals for measurements of serum levels of E2, P, and MPA. Target levels of 80-160 pg/ml for E2, 4000-8000 pg/ml for P, and 400-800 pg/ml for MPA were based on levels that are effective by reproductive system indices in women and monkeys. Levels were measured in blood serum at catheterization by specific radio-immunoassays.
Angiography was carried out under isoflurane (0.75-1.25%) general anesthesia with 70% O2 and 30% N2O, and body temperature supported with a heating pad. After ketamine sedation (10 mg/kg) and endotracheal tube placement, both femoral arteries were cannulated for simultaneous measurement of systemic blood pressure and coronary catheterization. Intravenous anticoagulation with 1000 units of heparin and fluid replacement with 75-150 ml of lactated Ringer's solution, and if needed 10-50 ml of dextran, to reach a minimum control diastolic blood pressure of 60 mm Hg.
Coronary arteries (left anterior descending or left circumflex) of the monkeys were catheterized and agents injected as described above in Example 1.
Statistical analysis was carried out by Student's t-test (non-paired) or Chi-square, with the p<0.05 level accepted as significant.
All monkeys were treated with estradiol 17β via sylastic implants for the entire treatment period. P or MPA was added during the last 2 weeks as a second sylastic implant, to simulate the luteal phase (P) or hormone replacement therapy (MPA). All steroid implants were left in place, including during angiography. Steroid measurements were made by RIA on serum samples taken just before angiography. Indicates significant differences between P and MPA at p 0.05 (N=6 for each group).

[3] = vaginal administration; cited from earlier work
[4] = minimum, 5-20 minutes after IC S + U

In the case of `CC(=O)[C@H]1CC[C@H]2[C@@H]3CCC4=CC(=O)CC[C@]4(C)[C@H]3CC[C@]12C` [P, progesterone], the “whole cell Ca2+ (fluo 3) fluorescence after stimulation” value ([1]; FIG. 3) is reported as “increased significantly over control only at 1 minute”, the “peripheral-to-central Ca2+ ratio after stimulation” value ([1]; FIG. 4) is reported as “too small to be significant” and the “PKC signal after stimulation” value ([1]; FIG. 5) is reported as “failed to change PKC loci or intensity significantly from control values”. For the same compound, the “peripheral-to-central PKC ratio after stimulation” value ([1]; FIG. 6) was “never significantly different from control”, the “VMC contractions (cell width) after stimulation” value ([1]; FIG. 7) was “significantly different from 0-min controls only at 3 and 4 minutes” and the “diameter in dilator response to low dose ACh” value ([2]; 0.18 μg ACh IC) was 1.20±0.25 mm. The “Vasospasms (incidence)” value ([2]; S+U IC challenges, E2 implant plus P or MPA implant, N=6 per group) was 0 of 6 and 0/6, the “reduction of minimum (φ) from controls after S+U” value ([2]; S+U stimulation) was 67% and the “Control DBP in mm Hg” value ([2]; before S + U) was 60 ± 5 mm Hg. For the same compound, the “Control Heart rate in bpm” value ([2]; before S + U) was 130 ± 24 bpm, the “S + U (φ) minimum” value ([2]; minimum diameter 3 to 5 minutes after IC S + U) was 0.37±0.02 mm and the “S + U stim DBP in min Hg” value [2, 4] was 30 ± 12 min Hg. The “S + U stim SBP in mm Hg” value [2, 4] was 51 ± 18 mm Hg, the “S + U stim heart rate in bpm” value [2, 4] was 66 ± 34 bpm and the “Control (φ) in mm” value ([2]; proximal LAD or left circumflex diameter under control conditions, E2+P or E2+MPA group) was 1.14±0.21 mm. For the same compound, the “local concentration of progesterone in the endometrial tissue” value [3] was roughly 7 nanograms/ml.
